Measurements: publication PMC10742785, “Screening and Characterization of an α-Amylase Inhibitor from Carya cathayensis Sarg. Peel” (Foods, 2023)

Target: T1, α-amylase (hog pancreas) (Sus scrofa, UniProt P00690)
T1 construct: gene AMY2
T1 sequence (P00690 16-511): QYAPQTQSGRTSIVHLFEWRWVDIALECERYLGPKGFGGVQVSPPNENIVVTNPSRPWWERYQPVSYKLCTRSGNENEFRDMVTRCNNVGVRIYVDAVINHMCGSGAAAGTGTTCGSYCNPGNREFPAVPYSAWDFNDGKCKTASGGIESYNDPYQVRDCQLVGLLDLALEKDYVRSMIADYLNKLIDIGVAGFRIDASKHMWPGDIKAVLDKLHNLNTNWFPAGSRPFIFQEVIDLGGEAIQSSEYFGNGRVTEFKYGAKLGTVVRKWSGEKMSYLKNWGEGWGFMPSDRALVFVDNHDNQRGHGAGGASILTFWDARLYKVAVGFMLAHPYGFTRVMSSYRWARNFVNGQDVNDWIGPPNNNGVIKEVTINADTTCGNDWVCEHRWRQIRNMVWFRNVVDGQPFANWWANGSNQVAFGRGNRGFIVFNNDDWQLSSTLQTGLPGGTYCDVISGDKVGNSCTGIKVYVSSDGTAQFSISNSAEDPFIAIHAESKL
Assay: DNS starch hydrolysis assay with hog pancreas α-amylase; Lineweaver–Burk, Dixon and Eisenthal–Cornish-Bowden kinetics
Type: biochemical

Compound O=C(/C=C/c1ccc(O)cc1)O[C@@H]1CC(O)(C(=O)O)C[C@@H](O)C1O (stereo partly shown) [5-CQA, 5-O-p-coumaroylquinic acid] has an IC50 of 69.4 µM.
